# Reference: US5225531A, “Hexapeptide Lys Gly Ala Gly Asp Val” (Washington University, priority 1992, dated 1993)
# No end group written: not given here.
# Test system: human platelet rich plasma
# Type: cell-based
# Description: Platelet aggregation assay--Aggregation studies using human platelet rich plasma were performed as previously described (20). Briefly, blood from human volunteers who had not taken any antiplatelet drugs in the previous two weeks was collected into 1/10th volume of CCD buffer (100 mM sodium citrate, 136 mM glucose, pH 6.5). The blood was centrifuged for 3 min at 1000×g and the platelet rich plasma (PRP) was transferred to a plastic tube with a plastic pipet. The PRP was adjusted to 2×10^8 platelets/ml with platelet poor plasma (prepared by centrifuging anti-coagulated blood at 2000×g for 15 min) and placed on ice. PRP and control (saline) or test peptides (500 μl) were incubated with 5 μM ADP at 37° C. in a silanized glass cuvette with stirring (900 RPM). The extent of aggregation was monitored with a Payton aggregometer 2 min after the addition of ADP. Inhibition of aggregation for each sample was determined using the following formula: % Inhibition=[…], where Tbase =% of light transmission in PRP, Tagg =% of light transmission in the aggregated PRP sample containing the saline control for peptides, and Tpep =% of light transmission in the aggregated PRP sample containing the peptide inhibitor.
sequence,measurement,value
HHLGGAKGAGDV,Platelet ID50 (inhibition of platelet aggregation),> 100 µM
